Values of other authors, collected in patent publication EP2074993A1, “Venlafaxine-containing film-coated modified-release tablets” (Biovail Laboratories International S.r.l., priority 2007, dated 2009).

Conditions: in vivo

SMILES | elimination half-life
CN(C)CC(c1ccc(O)cc1)C1(O)CCCCC1 (centres unmarked) [O-desmethylvenlafaxine] | about 8 hours
COc1ccc(C(CN(C)C)C2(O)CCCCC2)cc1 (racemic) [Venlafaxine, (R/S)-1-[2-(dimethylamino)-1-(4-methoxyphenyl)ethyl]cyclohexanol] | about 4 hours
